Earlier results in patent US6403361B1, “Enzymatic method for modification of recombinant polypeptides” (Restoragen, Inc., priority 1993, dated 2002).
Where two headings read alike, the source gives them in different places.

How the values were obtained:
Adenosine deaminase = biological target: T1, Adenosine deaminase (Homo sapiens, UniProt P00813); details: E is times ten to the negative exponent
T1 sequence (P00813 1-363): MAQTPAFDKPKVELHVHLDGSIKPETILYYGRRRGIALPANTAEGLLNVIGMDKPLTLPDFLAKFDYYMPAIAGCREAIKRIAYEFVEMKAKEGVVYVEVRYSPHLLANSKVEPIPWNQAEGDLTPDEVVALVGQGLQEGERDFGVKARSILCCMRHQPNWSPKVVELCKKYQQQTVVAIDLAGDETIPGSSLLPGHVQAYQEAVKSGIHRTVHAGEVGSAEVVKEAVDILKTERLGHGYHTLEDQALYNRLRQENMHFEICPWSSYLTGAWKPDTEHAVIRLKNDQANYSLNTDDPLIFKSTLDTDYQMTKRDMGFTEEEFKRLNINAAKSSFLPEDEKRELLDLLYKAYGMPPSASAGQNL

Cholesterol esterase = biological target: T2, Cholesterol esterase (Homo sapiens, UniProt P19835); details: Ref. 8 (Sutton et al., BBRC, 134, 386-392 (1986)); E is times ten to the negative exponent
T2 sequence (P19835 21-753): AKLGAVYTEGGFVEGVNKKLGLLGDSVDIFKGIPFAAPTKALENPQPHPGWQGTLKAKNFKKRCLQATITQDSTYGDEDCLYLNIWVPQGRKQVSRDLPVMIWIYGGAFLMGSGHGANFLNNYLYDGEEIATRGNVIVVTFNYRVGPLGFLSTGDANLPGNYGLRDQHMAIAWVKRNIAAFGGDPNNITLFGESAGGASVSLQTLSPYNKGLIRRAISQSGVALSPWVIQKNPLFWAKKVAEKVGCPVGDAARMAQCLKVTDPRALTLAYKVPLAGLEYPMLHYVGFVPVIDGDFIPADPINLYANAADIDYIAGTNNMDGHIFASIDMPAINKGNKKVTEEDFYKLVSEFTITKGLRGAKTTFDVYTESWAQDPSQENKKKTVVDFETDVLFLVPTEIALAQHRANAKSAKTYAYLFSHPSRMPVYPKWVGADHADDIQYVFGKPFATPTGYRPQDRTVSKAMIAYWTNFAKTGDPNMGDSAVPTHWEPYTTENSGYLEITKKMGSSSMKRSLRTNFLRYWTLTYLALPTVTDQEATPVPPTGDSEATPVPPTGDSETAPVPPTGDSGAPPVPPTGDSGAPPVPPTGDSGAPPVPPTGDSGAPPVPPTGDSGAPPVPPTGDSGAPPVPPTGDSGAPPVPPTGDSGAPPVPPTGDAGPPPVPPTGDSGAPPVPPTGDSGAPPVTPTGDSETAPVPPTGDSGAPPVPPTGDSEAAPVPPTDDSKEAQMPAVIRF

CCCCCCC(C(C)O)n1cnc2c(N)ncnc21 (stereo not drawn) [erythro-9-(2-hydroxy-3 nonyl) adenine]
Kd (Adenosine deaminase; Ref. 2 (Agarwal et al., Biochemical Pharm., 26, 354-367 (1977))): 1600 pM

Borinic acid
Kd (Cholesterol esterase): 100 pM

OC[C@H]1O[C@@H](n2cnc3c2N=CNC[C@H]3O)[C@H](O)[C@@H]1O [Coformycin]
Kd (Adenosine deaminase; Ref. 1 (Cha et al., Biochemical Pharm., 24, 2187-2197)): < 120 pM
